Structures can show the parent of a compound that is named as a salt. Where two headings read alike, the source gives them in different places.
Columns and labels:
AuroraA-TPX2 = molecular target: T1, AuroraA-TPX2 (Homo sapiens, UniProt O14965); assay: AuroraA-TPX2 Homogeneous Time Resolved Fluorescent (HTRF) kinase assay; assay type: biochemical
T1 construct: 20 µL of AuroraA-TPX2 KD GST; GST
T1 sequence (O14965 133-383 limits assumed): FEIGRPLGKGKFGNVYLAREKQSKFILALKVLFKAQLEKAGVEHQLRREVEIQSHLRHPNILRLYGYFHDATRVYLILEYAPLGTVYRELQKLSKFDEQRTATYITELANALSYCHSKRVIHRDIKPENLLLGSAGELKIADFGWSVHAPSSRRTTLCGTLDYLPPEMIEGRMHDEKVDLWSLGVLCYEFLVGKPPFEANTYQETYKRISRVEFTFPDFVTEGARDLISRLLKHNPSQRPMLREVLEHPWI
T1 sequence (Q9ULW0 1-43 partner limits assumed): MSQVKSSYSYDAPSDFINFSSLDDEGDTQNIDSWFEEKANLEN
Method: AuroraA-TPX2-Homogeneous Time Resolved Fluorescent (HTRF) Kinase Assay:
The Aurora-A HTRF assay begins with Aurora-A in the presence of ATP phosphorylating the biotinylated peptide PLK. The reaction incubates for about 120 min. Detection reagents are added to quench the reaction. These agents stop the reaction by diluting out the enzyme and chelating the metals due to the presence of EDTA. After addition, the assay is incubated overnight to allow the detection reagents to equilibrate.
The final concentration of PLK is about 1 µM. […] Buffer conditions are as follows: 60mM HEPES pH 7.5, 25mM NaCl, 10mM MgCl, 2mM DTT, 0.05% BSA.
(§1) The assay is quenched and stopped with 160 µL, of detection reagent. Detection reagents are as follows: Buffer made of 50mM Tris, pH 7.5, 100mM NaCl, 3mM EDTA, 0.05% BSA, 0.1% Tween20. Added to this buffer prior to reading is Steptavidin allophycocyanin (SA-APC) at a final conc in the assay of 0.0005 mg/mL, and europilated anti-phosphoPLK Ab (Eu-anti-PLK) at a final conc of 0.02 nM.
The assay plate is read in either a Discovery or a RubyStar. The eu-anti-PLK is excited at 320 nm and emits at 615 nm to excite the SA-APC which in turn emits at 655 nm.

AuroraB = molecular target: T2, AuroraB (Homo sapiens, UniProt Q96GD4); assay: AuroraB Homogeneous Time Resolved Fluorescent (HTRF) kinase assay; assay type: biochemical
T2 construct: 20 µL of AuroraB FL His; His
T2 sequence (Q96GD4 whole entry): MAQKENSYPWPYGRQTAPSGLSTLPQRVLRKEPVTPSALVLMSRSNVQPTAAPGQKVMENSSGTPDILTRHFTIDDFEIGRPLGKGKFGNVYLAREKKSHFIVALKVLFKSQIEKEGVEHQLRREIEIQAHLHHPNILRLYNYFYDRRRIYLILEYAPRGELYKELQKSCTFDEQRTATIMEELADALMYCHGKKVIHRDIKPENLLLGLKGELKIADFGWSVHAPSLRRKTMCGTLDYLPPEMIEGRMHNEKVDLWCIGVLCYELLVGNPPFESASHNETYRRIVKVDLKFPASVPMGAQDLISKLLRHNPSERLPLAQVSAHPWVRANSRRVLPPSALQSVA
Method: AuroraB-Homogeneous Time Resolved Fluorescent (HTRF) Kinase Assay:
The AuroraB HTRF assay begins with AuroraB in the presence of ATP phosphorylating the biotinylated peptide Histone H3. The reaction incubates for about 90 min. the reaction is quentched by addition of detection reagents, which stop the reaction by diluting out the enzyme and chelating the metals due to the presence of EDTA. After addition, the assay is incubated for about 60 min to allow detection reagents to equilibrate.
The AuroraB HTRF assay comprises 1 µL of compound in 100% DMSO, 20 µL of ATP and biotinylated Histone H3, and 20 µL of AuroraB FL His for a final volume of 41 µL. The final concentration of Histone H3 is 0.1 µM. The final concentration of ATP is 23 µM (Km(app) = 23 µM+/-2.6) and the final concentration of AuroraB is 400 pM. Buffer conditions are as follows: 50mM HEPES pH 7.5, 5mM NaCl, 0.5mM MgCl, 0.5mM MnCl, 2mM DTT, 0.05% BSA.
as §1, with “µL” for “µL,”, “0.001” for “0.0005”, “anti-phosphoHistoneH3” for “anti-phosphoPLK”, “(Eu-anti-HisH3)” for “(Eu-anti-PLK)”, “0.064” for “0.02”
The assay plate is read in either a Discovery or a RubyStar. The eu-anti-HisH3 is excited at 320 nm and emits at 615 nm to excite the SA-APC which in turn emits at 655 nm. The ratio of SA-APC at 655 nm (excited due to close proximity to the Eu-anti-HisH3 because of phosphorylation of the peptide) to free Eu-anti-HisH3 at 615 nm will give substrate phosphorylation.

[1] = read-out: average inhibitory activity (IC50) in the Aurora kinase A HTRF assay
[2] = read-out: average activity in the Aurora kinase B HTRF assay
[3] = read-out: average activity in the Aurora kinase A HTRF assay
[4] = average, given as numbers, unit inferred, read-out: AurB_ _IC50_IP (Avg)
[5] = average, given as numbers, unit inferred, read-out: AurA/TP X2_ IC50_IP (Avg)
[6] = average, given as class symbols, read-out: AurB_ _IC50_IP (Avg)
[7] = average, given as class symbols, read-out: AurA/TP X2_ IC50_IP (Avg)

Compound	IC50 (AuroraB; [2])	IC50 (AuroraA-TPX2; [3])	IC50 (AuroraB; [6])	further results
CNc1cc(-c2cccnc2Oc2ccc(Nc3nnc(-c4ccc(F)cc4)c4ccccc34)cn2)ccn1 [Example 60, 2-((5-((4-(4-fluorophenyl)-1-phthalazinyl)amino)-2-pyridinyl)oxy)-N-methyl-3,4'-bipyridin-2'-amine]				IC50 (AuroraA-TPX2; [1]): < 0.5 µM
c1ccc(-c2nnc(Nc3ccc(Oc4ncccc4-c4ccnc5[nH]ccc45)cc3)c3ccccc23)cc1 [Example 61, 4-phenyl-N-(4-((3-(1H-pyrrolo[2,3-b]pyridin-4-yl)-2-pyridinyl)oxy)phenyl)-1-phthalazinamine]				IC50 (AuroraA-TPX2; [1]): < 0.5 µM
Nc1nccc(-c2cccnc2Oc2ccc(Nc3nnc(N4CCCCC4)c4ccccc34)cc2)n1 [Example 67, N-(4-((3-(2-amino-4-pyrimidinyl)-2-pyridinyl)oxy)phenyl)-4-(1-piperidinyl)-1-phthalazinamine]				IC50 (AuroraA-TPX2; [1]): < 0.5 µM
CNc1nccc(-c2cccnc2Oc2ccc(Nc3nnc(N4CCCCC4)c4ccccc34)cn2)n1 [Example 68, N-(6-((3-(2-(methylamino)-4-pyrimidinyl)-2-pyridinyl)oxy)-3-pyridinyl)-4-(1-piperidinyl)-1-phthalazinamine]				IC50 (AuroraA-TPX2; [1]): < 0.5 µM
NC(=O)c1n[nH]cc1-c1cccnc1Oc1ccc(Nc2nnc(-c3ccccc3)c3ccccc23)cc1 [Example 241, 4-(2-(4-(4-phenylphthalazin-1-ylamino)phenoxy)pyridin-3-yl)-1H-pyrazole-3-carboxamide]	≤ 1 µM	≤ 1 µM		
CNc1nccc(-c2cccnc2Oc2ccc(Nc3nnc(-c4cc(Cl)cs4)c4ccccc34)cc2)n1 [Example 245, 4-(4-chlorothiophen-2-yl)-N-(4-(3-(2-(methylamino)pyrimidin-4-yl)pyridin-2-yloxy)phenyl)phthalazin-1-amine]	≤ 1 µM	≤ 1 µM		
c1ccc(-c2nnc(Nc3cnc(Oc4ccccc4-c4ccncc4)nc3)c3ccccc23)cc1 [Example 468, 4-Phenyl-N-(2-(2-(pyridin-4-yl)phenoxy)pyrimidin-5-yl)phthalazin-1-amine]	≤ 0.1 µM	≤ 0.1 µM		
Nc1ncc(F)c(-c2cccnc2Oc2ccc(Nc3nnc(-c4ccccc4)c4ccccc34)cc2)n1 [Example 469, N-(4-(3-(2-Amino-5-fluoropyrimidin-4-yl)pyridin-2-yloxy)phenyl)-4-phenylphthalazin-1-amine]	≤ 0.1 µM	≤ 0.1 µM		
COC(=O)c1cc(-c2ccccc2)nnc1Nc1ccc(Oc2ncccc2-c2ccnc(N)n2)cc1 [Example 470, methyl 3-((4-((3-(2-amino-4-pyrimidinyl)-2-pyridinyl)oxy)phenyl)amino)-6-phenyl-4-pyridazinecarboxylate]	≤ 1 µM	≤ 1 µM		
Nc1nccc(-c2cccnc2Oc2ccc(Nc3nnc(-c4ccc(CN5CCCC5)cc4)c4ccccc34)cc2)n1 [Example Method E, N-(4-(3-(2-aminopyrimidin-4-yl)pyridin-2-yloxy)phenyl)-4-(4-(pyrrolidin-1-ylmethyl)phenyl)phthalazin-1-amine]	≤ 1 µM	≤ 1 µM		
O=P(O)(O)OCCCNc1nccc(-c2cccnc2Oc2ccc(Nc3nnc(-c4ccccc4)c4ccccc34)cc2)n1 [Example Method F, 3-(4-(2-(4-(4-phenylphthalazin-1-ylamino)phenoxy)pyridin-3-yl)pyrimidin-2-ylamino)propyl dihydrogen phosphate dihydrochloride]	≤ 0.1 µM	≤ 0.1 µM		
Cc1cc(-c2nnc(Nc3ccc(Oc4ncccc4-c4ccnc(N)n4)cc3)c3ccccc23)sn1 [compound 251, N-(4-((3-(2-amino-4-pyrimidinyl)-2-pyridinyl)oxy)phenyl)-4-(3-methyl-5-isothiazolyl)-1-phthalazinamine]				IC50 (AuroraB; [4]): 0.0004 µM; IC50 (AuroraA-TPX2; [5]): 0.016 µM
c1ccc(-c2nnc(Nc3ccc(Oc4ccccc4-c4ccncc4)cc3)c3ccccc23)cc1 [compound 252, 4-phenyl-N-(4-((2-(4-pyridinyl)phenyl)oxy)phenyl)-1-phthalazinamine]				IC50 (AuroraB; [4]): 0.66 µM; IC50 (AuroraA-TPX2; [5]): 0.166 µM
COc1cccc(OC)c1-c1nnc(Nc2ccc(Oc3ncccc3-c3ccnc(N)n3)cc2)c2ccccc12 [compound 253, N-(4-((3-(2-amino-4-pyrimidinyl)-2-pyridinyl)oxy)phenyl)-4-(2,6-bis(methyloxy)phenyl)-1-phthalazinamine]				IC50 (AuroraB; [4]): 0.472 µM; IC50 (AuroraA-TPX2; [5]): 2.32 µM
Oc1nccc(-c2cccnc2Oc2ccc(Nc3nnc(-c4ccccc4)c4ccccc34)cc2)n1 [compound 325, 4-(2-((4-((4-phenyl-1-phthalazinyl)amino)phenyl)oxy)-3-pyridinyl)-2-pyrimidinol]				IC50 (AuroraA-TPX2; [7]): 0.5 to 2.5 µM

Further lines, with some results ahead:

IC50 (AuroraB; [2])	IC50 (AuroraA-TPX2; [3])	IC50 (AuroraB; [6])	Compound	further results
		≤ 0.1 µM	Nc1nccc(-c2ccccc2Oc2ccc(Nc3nnc(-c4ccccc4)c4ccccc34)cc2)n1 [compound 254, N-(4-((2-(2-amino-4-pyrimidinyl)phenyl)oxy)phenyl)-4-phenyl-1-phthalazinamine]	IC50 (AuroraA-TPX2; [7]): ≤ 0.1 µM
		≤ 0.1 µM	CNc1cc(-c2cccnc2Nc2ccc(Nc3nnc(-c4ccccc4)c4ccccc34)cc2)ncn1 [compound 255, N-(3-(6-(methylamino)-4-pyrimidinyl)-2-pyridinyl)-N'-(4-phenyl-1-phthalazinyl)-1,4-benzenediamine]	IC50 (AuroraA-TPX2; [7]): 0.1 to 0.5 µM
		0.5 to 2.5 µM	Cc1csc(-c2cc(C)c(Nc3ccc(Oc4ncccc4-c4ccnc5c4CCCN5)cc3)nn2)n1 [compound 286, 4-methyl-6-(4-methyl-1,3-thiazol-2-yl)-N-(4-((3-(5,6,7,8-tetrahydro-1,8-naphthyridin-4-yl)-2-pyridinyl)oxy)phenyl)-3-pyridazinamine]	
		0.5 to 2.5 µM	COc1ccc(CNc2cc(-c3ccccc3Oc3ncc(Nc4nnc(-c5ccccc5)c5ccccc45)cn3)ccn2)cc1 [compound 290, N-(2-((2-(2-(((4-(methyloxy)phenyl)methyl)amino)-4-pyridinyl)phenyl)oxy)-5-pyrimidinyl)-4-phenyl-1-phthalazinamine]	
		≤ 0.1 µM	c1ccc(-c2nnc(Nc3ccc(Oc4ncccc4-c4ccnc(N5CCC5)n4)cc3)c3ccccc23)cc1 [compound 294, N-(4-((3-(2-(1-azetidinyl)-4-pyrimidinyl)-2-pyridinyl)oxy)phenyl)-4-phenyl-1-phthalazinamine]	
		≤ 0.1 µM	Nc1nccc(-c2cccnc2Oc2ccc(Nc3nnc(N4CCC(CO)CC4)c4ccccc34)cc2)n1 [compound 353, (1-(4-((4-((3-(2-amino-4-pyrimidinyl)-2-pyridinyl)oxy)phenyl)amino)-1-phthalazinyl)-4-piperidinyl)methanol]	
		0.1 to 0.5 µM	C[C@H]1CN(c2nnc(Nc3ccc(Oc4ncccc4-c4ccnc(N)n4)cc3)c3ccccc23)CCN1 [compound 398, N-(4-((3-(2-amino-4-pyrimidinyl)-2-pyridinyl)oxy)phenyl)-4-((3S)-3-methyl-1-piperazinyl)-1-phthalazinamine]	
		≤ 0.1 µM	Nc1nccc(-c2cccnc2Oc2ccc(Nc3nnc(-c4cccc(CNCCO)c4)c4ccccc34)cc2)n1 [compound 413, 2-(((3-(4-((4-((3-(2-amino-4-pyrimidinyl)-2-pyridinyl)oxy)phenyl)amino)-1-phthalazinyl)phenyl)methyl)amino)ethanol]	
